Measured values: US6376169B1, “Method for diagnosing a vascular condition” (Queens University at Kingston, priority 1998, dated 2002)
Entries after “also recorded” stand apart in the source; their conditions may differ. Where a name gives a salt, the structure may show the parent alone. Read-outs that look alike come from different tables or passages of the source.

Tests used:
RTP/Drg1 [1] = conditions: A549 cells exposed to nickel; cited from earlier work
APO-induced erections = test: Apomorphine (APO) bioassay of erectile function; format: in vivo, Wistar rats
From the text: 16 adult male Wistar rats from Charles River Laboratories (Montreal, Quebec) weighing 300-350 g were used in the investigation. The animals were divided into two study groups. The animals were individually housed in a climate-controlled room under a 12-hour light/dark cycle and allowed access to food (Purina Lab Chow) and water ad libitum. All procedures were in accordance with the guidelines set out by the Canadian Council on Animal Care. The animals were allowed to acclimate 5 days prior to testing and were handled by the researcher during this time.
The apomorphine (APO) bioassay of erectile function was performed in an isolated area. […] The animals were each placed in a separate hanging wire test cage in an isolated, dark and sound proof room and allowed to acclimatize to the surroundings for 10 minutes. Each rat received 80 ug/kg APO (Sigma Chemical Co., St. Louis, Mo.) prepared in physiological saline containing […] ascorbic acid via subcutaneous (s.c.) injection (lml/kg at the nape of the neck). Erectile and yawning responses to APO were monitored and recorded (30 minutes) in an adjacent room via a video monitoring system.
(§1) An erection was counted when an engorged glans penis and distal shaft were exposed. A wide opening of the mouth associated with appropriate respiratory movement identified a yawn. […] Rats with unsatisfactory control erectile response were removed from further study.
Yawns were not altered in either protocol (data not shown).
The 270 mg/kg dose was prepared, requiring initial heating and stirring. This dose was administered in a single injection (1 ml/kg, i.p. of a 270 mg/ml concentration) half an hour prior to the commencement of APO-induced erectile monitoring.
At one week intervals, rats were given single, increasing doses of flutamide (25, 35, or 50 mg/kg) (Sigma Chemical Co., St. Louis, Mo.). For each dose, flutamide was dissolved in peanut oil and administered via i.p injection in a volume of 1 ml/kg. […] Each dose of flutamide was given 1 week after the previous dose, to allow APO-induced erections to return to control levels.
From the group of 8 rats, 4 rats were randomly selected.
Testosterone was administered in an attempt to recover APO-induced erections to control levels.
The required testosterone concentrations were prepared using 100 mg/ml testosterone propionate (Taro Pharmaceuticals, Brarnalea, ON.) diluted in peanut oil. Each dose was administered in a 1 ml/kg volume.
For each APO testing protocol, the average number of erections and standard deviation was determined. […] Therefore, each rat served as its own control. Treated values were compared to control values using Student's paired t-test, except where noted in Study 2b.

hepatic cytochromes P450 = conditions: literature; cited from earlier work
APO-induced yawns = test: APO-induced yawning response; format: in vivo, Wistar rats
Protocol: The apomorphine (APO) bioassay of erectile function was performed in an isolated area. The rat model of APO-induced erections used to assess the effects of p,p-DDE and flutamide on erectile function was based on the model developed by Heaton et al J Urol. 145:1099 (1991). The animals were each placed in a separate hanging wire test cage in an isolated, dark and sound proof room and allowed to acclimatize to the surroundings for 10 minutes. Each rat received 80 ug/kg APO (Sigma Chemical Co., St. Louis, Mo.) prepared in physiological saline containing […] ascorbic acid via subcutaneous (s.c.) injection (lml/kg at the nape of the neck). Erectile and yawning responses to APO were monitored and recorded (30 minutes) in an adjacent room via a video monitoring system.
as §1

[2] = pubertal or adults rats, Kelce et al; cited from earlier work
RTP/Drg1 mRNA = test: Northern blot of RTP/Drg1 mRNA in MDA-MB-231 cells; format: cell-based, human; conditions: 20% oxygen, up to 72 h; 100 μM cobalt chloride, 30 mM Tiron or 100 μM DFO
Protocol: (§2) To determine whether hypoxia regulates the expression of certain genes (e.g., PAI-1, uPAR, RTP/Drg1) via an iron-containing heme protein, cells were cultured for up to 72 h at 20% oxygen in the presence or absence of either 100 μM cobalt chloride, or 30 mM sodium 4,5-dihydroxybenzene-1,3-disulfonate (Tiron), or 100 μM desferrioxamine mesylate (DFO) (Sigma Chemical CO., St. Louis, Mo.). Further confirmation of the role of a heme protein in hypoxic responses can be achieved by culturing cells under hypoxia in the presence of carbon monoxide, which maintains the heme protein in the oxy state and thereby blocks heme protein-mediated hypoxic responses. Thus, cells were also cultured for 24 h at 37° C. under hypoxic conditions in the presence of 30% carbon monoxide.
Northern Blot Analysis. Total RNA was isolated from cell lines as described above. Aliquots of 20 μg were denatured and subjected to electrophoresis in 1% agarose-formaldehyde gels (Sambrook, J., Fritsch, E. F., and Maniatis, T. Molecular Cloning: A Laboratory Manual, Cold Spring Harbor Laboratory, Cold Spring Harbor, N.Y. (1989)). RNA was transferred to nylon membranes (Micron Separations, Inc., Westboro, Mass.). After prehybridization at 42° C. for 2-3 h in 50% formamide, 5×Denhardt's solution, 0.5% sodium dodecyl sulfate (SDS), 6×SSC (1×SSC: 0.15M NaCl, 15 mM sodium citrate, pH 7.0), and 100 μg/mL denatured salmon sperm DNA, membranes were hybridized for a period of time of overnight (˜18 h) to about 72 h at 42° C. with a cDNA probe (e.g., RTP/Drg1, PAI-1 (PAI-1 cDNA provided by Dr. Keith McCrae, Temple University School of Medicine, Philadelphia, Pa.), uPAR (Higazi A, et al., J Biol Chem 266:12752, (1995)) pre-labeled with [^32P]-dCTP using a Pharmacia Oligolabelling kit (Pharmacia Biotech, Piscataway, N.J.). The hybridization solution contained 6×SSC, 0.5% SDS, 100 μg/mL denatured salmon sperm DNA, 50% formamide and cDNA probe. After hybridization, the membranes were washed with 2×SSC and 0.5% SDS at room temperature for 15 min, 2×SSC and 0.1% SDS at room temperature for 15 min, and 0.1×SSC and 0.5% SDS for 30 min. Dupont Reflection NEF film (Dupont Canada, Inc., Mississauga, ON) was exposed to the membranes for 1-3 days at −80° C. Bands on radiographic film were analyzed using a SigmaGel gel analysis software package (Jandel Scientific Software, San Rafael, Calif.).

RTP/Drg1 protein = test: Western blot of RTP/Drg1 protein in MDA-MB-231 cells; format: cell-based, human; conditions: 20% oxygen, up to 72 h; 100 μM cobalt chloride, 30 mM Tiron or 100 μM DFO
Protocol: as §2
Western Blot Analysis. To examine levels of RTP/Drg1 protein, cells were lysed with buffer containing 40 mM HEPES pH 7.2, 100 mM NaCl, 20% glycerol, 0.1 mM EDTA pH 8.0, 0.2% Triton X-100 (polyoxyethylene (10) isooctylphenyl ether), 1 mM DTT, and 2 mM PMSF, and centrifuged briefly at 4° C. The supernatants were collected and stored at −80° C. until use. SDS-PAGE was performed and resolved proteins were transferred to Immobilon-P membranes (Millipore Corp., Bedford, Mass.) using a semi-dry transfer cell (Bio-Rad Laboratories, Mississauga, ON). Membranes were blocked by incubation overnight at 4° C. in a PBS-buffered solution containing 0.01% Tween 20 (polyoxyethylene(20) sorbitan monolaurate) (PBS-T) and 5% casein. The blots were then incubated with polyclonal rabbit anti-Drg1 antiserum followed by incubation with a peroxidase labeled goat anti-rabbit IgG secondary antibody (Vector Lab. Inc., Burlingame, Calif.). Antigen was detected by enhanced chemiluminescence (ECL, Amersham Canada Inc., Oakville, ON) and exposure of the membrane onto Dupont Reflection NEF film (Dupont Canada, Inc., Mississauga ON).

uPAR = conditions: vascular endothelial cells; cited from earlier work
uPAR mRNA = test: Northern blot of uPAR mRNA in HTR-8/SVneo cells; format: cell-based, human; conditions: 10 ng/ml VEGF, 24 h, normoxic conditions
Protocol: as §2, with “Thus, cells were also cultured for 24 h at 37° C. under hypoxic conditions in the presence of 30% carbon monoxide.” left out
Northern Blot Analysis. Total RNA was isolated from cell lines as described above. […] RNA was transferred to nylon membranes (Micron Separations, Inc., Westboro, Mass.). […] The hybridization solution contained 6×SSC, 0.5% SDS, 100 μg/mL denatured salmon sperm DNA, 50% formamide and cDNA probe. After hybridization, the membranes were washed with 2×SSC and 0.5% SDS at room temperature for 15 min, 2×SSC and 0.1% SDS at room temperature for 15 min, and 0.1×SSC and 0.5% SDS for 30 min. Dupont Reflection NEF film (Dupont Canada, Inc., Mississauga, ON) was exposed to the membranes for 1-3 days at −80° C. Bands on radiographic film were analyzed using a SigmaGel gel analysis software package (Jandel Scientific Software, San Rafael, Calif.).

RTP/Drg1 [3] = conditions: endothelial cells treated with homocysteine; cited from earlier work

In the case of `[Ni]` [nickel], the “expression of RTP/Drg1” value (RTP/Drg1 [1]) is listed as “increased”.

In the case of `ClC(Cl)=C(c1ccc(Cl)cc1)c1ccc(Cl)cc1` [p,p-DDE], the APO-induced erections (APO-induced erections; 270 mg/kg p,p-DDE i.p., 5 hour testing period, Study 1) is reported as “no significant effect”, the APO-induced erectile response (APO-induced erections; 500 mg/kg p,p-DDE i.p., 3 hours after administration, Study 1) is reported as “significant decrease” and the “APO-induced erectile response two weeks after administration” value (APO-induced erections; 500 mg/kg p,p-DDE vs control and 50 mg/kg flutamide) is reported as “significantly different from controls and from the flutamide two week response; also recorded: remained significantly lower than controls; also recorded: significantly different from both control and 50 mg/kg flutamide responses”. For the same molecule, the “APO-induced erections, time course” value (APO-induced erections; single dose 500 mg/kg p,p-DDE, 0.5, 4, 12, 24 hours and 2 weeks, 500 mg/kg) was “significantly decreased; also recorded: persistently suppressed”, the “metabolism upon administration / absorption” value (hepatic cytochromes P450) was “not metabolised” and the APO-induced yawns (APO-induced yawns; 500 mg/kg p,p-DDE, two week assessment) was “not significantly different from control levels; also recorded: little effect”. For the same molecule, the APO-induced yawning responses (APO-induced yawns; p,p-DDE treatment, Study 1) was “not altered” and the plasma testosterone levels [2] was “did not alter plasma testosterone levels”.

In the case of `CCC(=O)O[C@H]1CC[C@H]2[C@@H]3CCC4=CC(=O)CC[C@]4(C)[C@H]3CC[C@]12C` [testosterone, testosterone propionate], the “APO-induced erections in p,p-DDE treated rats after testosterone supplementation” value (APO-induced erections; 480 ug/kg, 1.2 or 2.4 mg/kg i.p., 0.5, 4, 12 hours, two weeks after p,p-DDE) is reported as “no significant increases in erections; also recorded: remained significantly decreased at most of the time points; also recorded: failed to return APO-induced erections to control levels” and the “APO-induced yawning responses after testosterone supplementation” value (APO-induced yawns; p,p-DDE treated rats, 12 hour test periods) is reported as “did not change the status of yawning responses”.

For `CC(C)C(=O)Nc1ccc([N+](=O)[O-])c(C(F)(F)F)c1` [flutamide], the “metabolism upon administration / absorption” value (hepatic cytochromes P450) is listed as “rapidly metabolised by hepatic cytochromes P450”.

For `CC(=O)N(O)CCCCCNC(=O)CCC(=O)N(O)CCCCCNC(=O)CCC(=O)N(O)CCCCCN` [DFO, desferrioxamine mesylate], the “levels of RTP/Drg1 mRNA” value (RTP/Drg1 mRNA) was “time-dependent increases in RTP/Drg1 mRNA” and the “levels of RTP/Drg1 protein” value (RTP/Drg1 protein) was “time-dependent increases in RTP/Drg1 protein”.

In the case of VEGF, the “expression of uPAR” value (uPAR) is listed as “increases the expression of uPAR” and the “induction of uPAR mRNA” value (uPAR mRNA) is listed as “did not result in increased levels of uPAR transcript; also recorded: does not induce”.

In the case of `N[C@@H](CCS)C(=O)O` [homocysteine], the “expression of RTP/Drg1” value (RTP/Drg1 [3]) is given as “increased”.
